From patent publication US5770595A, “Oxime substituted therapeutic compounds” (Cell Therapeutics, Inc., priority 1994, dated 1998)

Legend:
[1] = tested on: murine thymocyte; assay: thymocyte proliferation stimulated by ConA and IL-1α; format: cell-based, murine (female Balb/C mice); settings: ConA 0.25 μg/ml, IL-1α 12.5 ng/ml; drug 2 h prior
Experimental: A thymocyte costimulator assay is conducted to evaluate the inventive compounds to inhibit activation and proliferation of thymocytes caused by stimulation with Con A and interleukin-1 (IL-1), or […]. Thymuses are obtained from mice (e.g., female Balb/C mice) and the thymuses are removed and dissociated into culture media (e.g., RPMI 1640 without serum supplementation). The dissociated thymus tissue and cell suspension is transferred to centrifuge tubes and allowed to settle, washed with HBSS and resuspended in serum-supplemented culture media (e.g., RPMI 1640 with 10% fetal calf serum). Any contaminating red cells are lysed, and viable cells are resuspended and counted. Thymocytes are plated (e.g., 96-well plates at a density of 2×10^5 cells/well) and a stimulating agent, such as Con A, IL-1 (e.g., IL-1α) or IL-2 is added to the well. The cells are incubated for 4 days at 37° C. On the fourth day, the cells are pulsed with tritiated thymidine and cell proliferation determined. […]
1521 on inhibition of murine thymocyte proliferation stimulated by Concanavalin A (ConA) and interleukin-I alpha (IL-1α). Thymuses were obtained from normal, female Balb/C mice. The thymuses were dissociated and plated into 96-well plates at a density of 2×10^5 cells/well. […] The cells were harvested and incorporated tritiated thymidine was determined in a liquid scintillation counter. […]

[2] = tested on: VCAM in HUVEC cells; assay: cell surface expression of VCAM in HUVEC; format: cell-based, human; settings: human TNF-α 20 ng/ml, 20 hours; FIG. 11
Experimental: Drug inhibitory activity can also be measured by determining levels of vascular cell adhesion molecule (VCAM) in stimulated cells. Early passage human umbilical vein endothelial cells (HUVEC) (obtained from commercial suppliers such as Cell Systems, Inc. or Clonetics) are cultured in media (e.g., Hepes buffered media, Cell Systems) containing 10% fetal bovine serum, and supplemented with a stimulating agent, such as fibroblast growth factor (acidic FGF, Cell Systems, Inc.) or TNF. The cells are plated into wells of a microtiter plate (e.g., 5×10^4 per well) and allowed to incubate at 37° C. for 72 hrs. The resting cells are removed (e.g., 20-30 min treatment with 0.4% EDTA), washed in media (e.g., phosphate buffered saline plus 0.1% bovine serum albumin with 0.01% sodium azide) and labeled on ice with a monoclonal antibody ("first antibody") recognizing human VCAM (e.g., 1 μg of a murine monoclonal antibody recognizing human VCAM, Genzyme). After 60 min on ice, the cells are washed (preferably twice) with cold wash media and incubated with an antibody that recognizes the first antibody (e.g., 1 μg of goat anti-mouse IgG conjugated with phycoerythrin, CalTag, Inc.). After 30 min on ice, the cells are washed twice and analyzed on a flow cytometer (Coulter Elite®) at appropriate emission and excitation wavelengths (e.g., for phycoerytlrin use excitation at 488 nm and emission at 525 nm).
The cells were stimulated with human TNF-α (20 ng/ml) for 20 hours and then stained for immunofluorescence using a monoclonal antibody recognizing VCAM, followed by a goat anti-mouse antibody conjugated to phycoerythrin. The cells were analyzed for antibody binding using flow cytometry. […] 1521 and 1522 at the indicated drug concentrations.
This example was used to investigate inhibition of vascular cell adhesion molecule (VCAM) expression on HUVEC by inventive compound no. 2525. VCAM expression by endothelial cells is an early event in atherogenesis and multiple sclerosis, among other various autoimmune diseases. FIG. 17, a plot of percent surface expression versus concentration of compound no.

[3] = tested on: human stromal cells; assay: proliferation of human stromal cells stimulated with PDGF; format: cell-based; settings: 50 ng/ml PDGF-BB
Experimental: Another assay for measuring activity of the inventive compounds involves determining PDGF (platelet derived growth factor) proliferative response using human-derived stromal cells. Human stromal cells are plated (e.g., about 2000 cells per well) in defined media (e.g., 69% McCoy's, 12.5% fetal calf serum, 12.5% horse serum, 1% antibiotics, 1% glutamine, 1% vitamin supplement, 0.8% essential amino acids, 1% sodium pyruvate, 1% sodium bicarbonate, 0.4% non-essential amino acids and 0.36% hydrocortisone). Two to three days later, the stromal cells are starved in serum-free media. Twenty four hours later, the cells are treated with a stimulating agent, such as PDGF-AA, PDGF-BB or basic FGF (fibroblast growth factor) with or without IL-1α or TNF, and tritiated thymidine. Cell proliferation is determined by liquid scintillation counting.
This example illustrates the ability of inventive compounds nos. […] This assay is a model for restenosis and treatment of atherosclerosis and coronary artery disease. Stromal cells were starved in serum-free media for one day and then stimulated with 50 ng/ml PDGF-BB. The drugs were added at the indicated concentrations one hour prior to PDGF stimulation. Tritiated thymidine was added for one day at the time of PDGF stimulation and the cells were harvested and counted by liquid scintillation counting 24 hours later. […]

Row | Structure (SMILES) | inhibition of thymocyte proliferation, ConA + IL-1α [1] | inhibition of cell surface expression of VCAM [2] | inhibition of proliferation of stromal cells stimulated with PDGF [3]
1 | CON=C(C)CCCCn1c(=O)c2c(ncn2C)n(C)c1=O [Compound no. 1522] | inhibited thymocyte proliferation | inhibit cell surface expression of VCAM in HUVEC cells | strongly inhibit proliferation of human stromal cells
2 | CC(CCCCn1c(=O)c2c(ncn2C)n(C)c1=O)=NO [Compound no. 1521] | inhibited thymocyte proliferation in a dose-response manner | inhibit cell surface expression of VCAM in HUVEC cells | strongly inhibit proliferation of human stromal cells
